# Reference: PubChem BioAssay AID608 (Sanford-Burnham Center for Chemical Genomics, 2007)
# Activity calls are given as the source filed them. No rule for the calls is given here.
# Target: Peptidyl-prolyl cis-trans isomerase FKBP1A (Homo sapiens) (UniProt P62942)
# Assay: FKBP12 binders, biophysical, NMR detection (AID 608)
# Details: NMR binding, purified FKBP12
# Sequence of Peptidyl-prolyl cis-trans isomerase FKBP1A (Homo sapiens) (P62942 whole entry, looked up): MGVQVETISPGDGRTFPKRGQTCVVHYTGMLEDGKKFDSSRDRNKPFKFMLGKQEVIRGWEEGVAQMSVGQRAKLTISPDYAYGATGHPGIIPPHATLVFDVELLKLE
row,Compound,Kd
1,CN1C(=O)CC[C@H]1c1cccnc1,> 4 mM (inactive)
2,CCN(CC)C(=O)c1n[nH]c(=O)c2ccccc12,> 4 mM (inactive)
3,COC(=O)c1cncn1C,> 4 mM (inactive)
4,Cn1ccnc1C(O)c1ccccc1 (stereo not given),> 4 mM (inactive)
5,Cc1noc(C)c1C(=O)Nc1ccc2c(c1)CCC2,> 4 mM (inactive)
6,O=C(O)CCN1CCOCC1,> 4 mM (inactive)
7,Cc1nnsc1C(=O)Nc1ccccc1[N+](=O)[O-],> 4 mM (inactive)
8,Cc1cc(C(=O)Nc2ccc3c(c2)OCO3)cs1,> 4 mM (inactive)
9,O=C(O)Cn1cc(C(=O)c2cccs2)c2ccccc21,> 4 mM (inactive)
10,CCNC(=O)CC[C@H](N)C(=O)O,> 4 mM (inactive)
11,COCC(=O)Nc1c(C(N)=O)oc2ccccc12,> 4 mM (inactive)
12,Cc1ccc(NC(=O)C2CCN(S(C)(=O)=O)CC2)cc1,> 4 mM (inactive)
13,c1cnc(N2CCNCC2)nc1,> 4 mM (inactive)
14,CC(C)CCCC(C)C1CCC2C3CC(=O)[C@H]4C[C@@H](O)CC[C@]4(C)C3CC[C@]12C (stereo not given in full),> 4 mM (inactive)
15,O=C1CC2OCC=C3CN4CC[C@]56c7ccccc7N1C5[C@H]2[C@H]3CC46 (stereo not given in full),> 4 mM (inactive)
16,c1ccc(CN2CCC3(CC2)Nc2ccccc2CO3)cc1,> 4 mM (inactive)
17,COC(=O)N1CCN(c2ccc(C(C)=O)cc2)CC1,> 4 mM (inactive)
18,Cc1ccccc1NS(=O)(=O)c1ccc(F)cc1,> 4 mM (inactive)
19,O=c1c(O)cc([C@H]2Oc3cc(O)cc(O)c3C[C@H]2O)cc2c([C@H]3Oc4cc(O)cc(O)c4C[C@H]3O)cc(O)c(O)c12,> 4 mM (inactive)
20,NC(=O)Cn1cnc(-c2ccc(F)cc2)c1,> 4 mM (inactive)

row,Compound,Kd
1,NC(=O)C1CCCN1S(=O)(=O)c1ccc(F)cc1 (stereo not given),> 4 mM (inactive)
2,O=C1C(=O)N(CN2CCN(CCO)CC2)c2ccccc21,> 4 mM (inactive)
3,OCC12COC3c4ccccc4C(OC1)N32 (stereo not given),> 4 mM (inactive)
4,Cc1cc(C(=O)Nn2cnnc2)cs1,> 4 mM (inactive)
5,O=S1(=O)CCC(NC(=S)Nc2ccc(O)cc2)C1 (stereo not given),> 4 mM (inactive)
6,CC1SC(=NC(=O)c2ccco2)NC1=O (stereo not given),> 4 mM (inactive)
7,Nc1nnc(SCc2ccccc2Cl)s1,> 4 mM (inactive)
8,CC[C@H]1CN2CCc3cc(OC)c(OC)cc3C2C[C@@H]1CC1NCCc2cc(OC)c(OC)cc21 (stereo not given in full),> 4 mM (inactive)
9,O=c1cc(-c2ccccc2)oc2c(O)c(O)ccc12,> 4 mM (inactive)
10,C=CCc1ccc(O)c(OC)c1,> 4 mM (inactive)
11,OCn1nnn(-c2ccccc2)c1=S,> 4 mM (inactive)
12,Cc1ccc2nc(SCCC#N)nc(C)c2c1,> 4 mM (inactive)
13,COC(=O)N1CCN(c2ccc(OC)cc2)CC1,> 4 mM (inactive)
14,NCc1ccc(-c2cccs2)s1,> 4 mM (inactive)
15,Cc1sc2nc3n(c(=O)c2c1C)CCCS3,> 4 mM (inactive)
16,Cn1ncc(NC(=O)Nc2ccc(F)cc2F)c1C(N)=O,> 4 mM (inactive)
17,CCOC(=O)c1cnc2sccn2c1=O,> 4 mM (inactive)
18,NC(=O)Cc1nc(-c2ccc(F)cc2)cs1,> 4 mM (inactive)
19,Cc1nc(-c2ccccc2)sc1C(N)=O,> 4 mM (inactive)
20,Clc1ccccc1-c1nc(-c2cccnc2)no1,> 4 mM (inactive)

row,Compound,Kd
1,O=C(O)c1cc2ccccc2cn1,> 4 mM (inactive)
2,O=C(c1ccccc1)N1CCOCC1,> 4 mM (inactive)
3,COc1cc2c3cc1Oc1cc(ccc1O)C[C@@H]1c4c(cc(OC)c(O)c4Oc4ccc(cc4)C[C@@H]3N(C)CC2)CC[N+]1(C)C,> 4 mM (inactive)
4,Cc1cc(C(F)(F)F)nn1CC(N)=O,> 4 mM (inactive)
5,O=C1CSC(c2ccccc2)N1 (stereo not given),> 4 mM (inactive)
6,CC(=O)OC/C=C(\C)CC/C=C(\C)CC/C=C(\C)CC/C=C(\C)CC/C=C(\C)CC/C=C(\C)CC/C=C(\C)CC/C=C(\C)CCC=C(C)C,> 4 mM (inactive)
7,CC(=O)Nc1ccc(N2C(=O)C=CC2=O)cc1C,> 4 mM (inactive)
8,O=C(O)Cn1nnn(-c2ccccc2)c1=S,> 4 mM (inactive)
9,c1cc(CNc2ccc3c(c2)OCCO3)ccn1,> 4 mM (inactive)
10,Cc1ccc(-c2nnn(CC(=O)O)n2)cc1,> 4 mM (inactive)
11,Cc1nnsc1C(=O)Nc1ccccn1,> 4 mM (inactive)
12,Cc1c(C(=O)O)cnn1-c1ccccc1,> 4 mM (inactive)
13,O=C(COc1ccccc1Cl)N1CCCC1,> 4 mM (inactive)
14,C=CCn1c(-c2ccc(O)cc2)n[nH]c1=S,> 4 mM (inactive)
15,COc1ccc(C2NC(C(=O)O)CS2)cc1 (stereo not given),> 4 mM (inactive)
16,Cc1cc(C(=O)NCc2cccs2)c(C)o1,> 4 mM (inactive)
17,Nc1ncccc1OCc1ccccc1,> 4 mM (inactive)
18,CN1CCN(Cc2cccnc2)CC1,> 4 mM (inactive)
19,O=C(O)CN(CCCc1ccccc1)CC(=O)O,> 4 mM (inactive)
20,CSc1ccccc1NC(=O)c1ccncc1,> 4 mM (inactive)
